From patent US6919334B2, “Antidepressant azaheterocyclymethyl derivatives of 4,5-dihydroimidazo[1,4,5-de][1,4]benzoxazine” (Wyeth, priority 2002, dated 2005) come the findings set out here.

One series deals with T1, serotonin transporter (Rattus norvegicus, UniProt P31652).
T1 construct: displace ^3H-paroxetine from male rat frontal cortical membranes; from tissue; host or cells: male rat frontal cortex membranes
As to the kind of experiment: 3H-paroxetine displacement, affinity for the serotonin transporter. The series is classed as binding.

For the next series, the target named is T2, human 5-HT1A receptors (Homo sapiens, UniProt P08908).
T2 construct: expressed in transfected cells; host or cells: CHO cells, stably transfected
T2 sequence (P08908 1-422): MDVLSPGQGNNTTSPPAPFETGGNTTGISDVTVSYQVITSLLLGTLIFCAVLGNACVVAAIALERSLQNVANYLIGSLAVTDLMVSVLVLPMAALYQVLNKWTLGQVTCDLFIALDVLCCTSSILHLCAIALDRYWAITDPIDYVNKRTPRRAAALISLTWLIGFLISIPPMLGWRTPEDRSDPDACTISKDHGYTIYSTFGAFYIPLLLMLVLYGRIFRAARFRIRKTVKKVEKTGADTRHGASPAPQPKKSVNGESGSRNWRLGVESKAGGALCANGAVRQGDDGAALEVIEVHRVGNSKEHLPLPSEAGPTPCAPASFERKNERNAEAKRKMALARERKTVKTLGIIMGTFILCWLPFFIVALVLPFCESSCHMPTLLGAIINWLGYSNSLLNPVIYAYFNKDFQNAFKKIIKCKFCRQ
As to the kind of experiment: [3H] 8-OHDPAT displacement from 5-HT1A receptor (transfected CHO cells). Particulars: percent displacement of [3H] 8-OHDPAT at 1 micromolar; CHO cells with human 5-HT1A. The series is classed as binding. The source says: Affinity for the serotonin 5-HT1A receptor was established by testing the claimed compound's ability to displace [^3H] 8-OHDPAT (dipropylaminotetralin) from the 5-HT1A serotonin receptor following a modification of the procedure of Hall et al., J. Neurochem. 44, 1685 (1985), which utilizes CHO cells stably transfected with human 5-HT1A receptors.
For orientation: Displacement assays read how much labelled ligand stays bound in the presence of the test substance.

For series [1], the target named is T3, cloned human 5-HT1A receptors (Homo sapiens, UniProt P08908).
T3 construct: expressed in transfected cells
T3 sequence (P08908 1-422): T2 sequence (P08908 1-422)
The series can be described thus: 35S-GTPγS binding assay, antagonist activity at 5-HT1A receptors. The series is classed as biochemical. The settings on record: reversal of agonist 8-OHDPAT; for IC50: membranes with cloned human 5-HT1A, read-out: 5-HT1A Function IC50; for 5-HT1A Function (Imax), maximum inhibitory effect: value in parentheses. Here is the method: Antagonist activity at 5-HT1A receptors was established by using a ^35S-GTPγS binding assay similar to that used by Lazareno and Birdsall (Br. J. Pharmacol. 109: 1120, 1993), in which the test compound's ability to affect the binding of ^35S-GTPγS to membranes containing cloned human 5-HT1A receptors was determined. Agonists produce an increase in binding whereas antagonists produce no increase but rather reverse the effects of the standard agonist 8-OHDPAT. The test compound's maximum inhibitory effect is represented as the Imax, while its potency is defined by the IC50.
In general terms: GTPγS is a poorly hydrolysed GTP analogue; its binding reports G protein activation.

Bounds are passed on as bounds.

T1 sequence (P31652 whole entry): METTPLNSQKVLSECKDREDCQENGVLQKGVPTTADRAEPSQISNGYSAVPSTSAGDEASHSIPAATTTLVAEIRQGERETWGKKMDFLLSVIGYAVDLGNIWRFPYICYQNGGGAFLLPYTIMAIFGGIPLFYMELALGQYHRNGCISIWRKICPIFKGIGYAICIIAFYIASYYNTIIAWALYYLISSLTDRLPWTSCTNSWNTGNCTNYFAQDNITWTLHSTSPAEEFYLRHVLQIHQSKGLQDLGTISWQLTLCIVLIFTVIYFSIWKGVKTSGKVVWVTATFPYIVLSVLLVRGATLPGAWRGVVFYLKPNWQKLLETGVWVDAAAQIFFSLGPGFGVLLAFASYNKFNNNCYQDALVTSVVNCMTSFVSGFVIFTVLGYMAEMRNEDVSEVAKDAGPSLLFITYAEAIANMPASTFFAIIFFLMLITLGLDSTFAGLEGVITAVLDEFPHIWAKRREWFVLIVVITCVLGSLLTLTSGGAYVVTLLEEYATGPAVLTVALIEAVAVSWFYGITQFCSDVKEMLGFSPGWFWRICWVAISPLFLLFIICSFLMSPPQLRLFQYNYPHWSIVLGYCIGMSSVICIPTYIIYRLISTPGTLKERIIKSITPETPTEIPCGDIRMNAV

`O=c1[nH]c2cccc3c2n1C(CN1CC=C(c2c[nH]c4ccccc24)CC1)CO3` (stereo not drawn) [Example 1, 4-{[4-(1H-indol-3-yl)-3,6-dihydropyridin-1(2H)-yl]methyl}-4,5-dihydroimidazo[1,5,4-de][1,4]benzoxazin-2(1H)-one]: the melting point lay within 147 to 149 °C. Besides, the affinity at serotonin transporter, expressed as Ki, was 1.07 nM. In addition, on human 5-HT1A receptors, the “5-HT1A Receptor Affinity % @ 1 μM” value came to 94%. Further, in series [1], the IC50 is 300 nM and the “5-HT1A Function (Imax), maximum inhibitory effect” value stood at 30.

For `O=c1[nH]c2cccc3c2n1C(CN1CC=C(c2c[nH]c4ccc(F)cc24)CC1)CO3` (stereo not drawn) [Example 2], the melting point was in the range of 152 to 155 °C. This compound also showed an inhibitory constant (Ki) on serotonin transporter of 2.08 nM. At human 5-HT1A receptors, the “5-HT1A Receptor Affinity % @ 1 μM” value turned out to be 36%. In series [1], the IC50 is 300 nM and the “5-HT1A Function (Imax), maximum inhibitory effect” value is given as 30.

On to `O=c1[nH]c2cccc3c2n1C(CN1CC=C(c2c[nH]c4ccc(Cl)cc24)CC1)CO3` (stereo not drawn) [Example 3, 4-{[4-(5-chloro-1H-indol-3-yl)-3,6-dihydropyridin-1(2H)-yl]methyl}-4,5-dihydroimidazo[1,5,4-de][1,4]benzoxazin-2(1H)-one], for which the melting point was 153 to 155 °C. The compound further showed a Ki at serotonin transporter of 15 nM. In addition, the “5-HT1A Receptor Affinity % @ 1 μM” value on human 5-HT1A receptors came to 81%. Moreover, in series [1], the IC50 turned out to be 300 nM and the “5-HT1A Function (Imax), maximum inhibitory effect” value is listed as 30.

In turn, `N#Cc1ccc2[nH]cc(C3=CCN(CC4COc5cccc6[nH]c(=O)n4c56)CC3)c2c1` (stereo not drawn) [Example 4, 3-{1-[(2-Oxo-1,2,4,5-tetrahydroimidazo[1,5,4-de][1,4]benzoxazin-4-yl)methyl]-1,2,3,6-tetrahydropyridin-4-yl}-1H-indole-5-carbonitrile] came in with a melting point above 160 °C. The Ki at serotonin transporter came to 3.55 nM. For the same compound, on human 5-HT1A receptors, the “5-HT1A Receptor Affinity % @ 1 μM” value was 49%. Also, in series [1], the IC50 came out at 750 nM and the “5-HT1A Function (Imax), maximum inhibitory effect” value stood at 100.

In turn, `O=c1[nH]c2cccc3c2n1C(CN1CC=C(c2c[nH]c4c(F)cccc24)CC1)CO3` (stereo not drawn) [Example 5, 4-{[4-(7-Fluoro-1H-indol-3-yl)-3,6-dihydropyridin-1(2H)-yl]methyl}-4,5-dihydroimidazo[1,5,4-de][1,4]benzoxazin-2(1H)-one] gave a melting point above 120 °C. For the same compound, on serotonin transporter, the Ki amounted to 1.23 nM. Besides, the “5-HT1A Receptor Affinity % @ 1 μM” value at human 5-HT1A receptors is listed as 48%. Moreover, in series [1], the IC50 was determined as 750 nM and the “5-HT1A Function (Imax), maximum inhibitory effect” value came to 100.

As to `Cc1nc2cccc3c2n1C(CN1CC=C(c2c[nH]c4ccccc24)CC1)CO3` (stereo not drawn) [Example 6, 4-{[4-(1H-indole-3-yl)-3,6-dihydropyridin-1(2H)-yl]methyl}-2-methyl-4,5-dihydroimidazo[1,5,4-de][1,4]benzoxazine], the melting point was 222 to 225 °C. The compound also gave a Ki on serotonin transporter of 1.86 nM. The “5-HT1A Receptor Affinity % @ 1 μM” value on human 5-HT1A receptors amounted to 39%. For the same compound, in series [1], the concentration for half-maximal inhibition (IC50) is 450 nM and the “5-HT1A Function (Imax), maximum inhibitory effect” value was 100.

The term Ki denotes the equilibrium dissociation constant of an inhibitor or competing ligand from its target. The low end stands for tighter binding, the high end for weaker binding. In general, IC50 refers to the concentration that inhibits the measured activity by half. By melting point is commonly meant the temperature, or range, at which the solid turns liquid.
